Data from patent US20180265515A1 (Genentech, Inc., priority 2015, published 2018).

What was measured:
[1] = target: T1, isolated recombinant JAK1 kinase domain (Homo sapiens, UniProt P23458); test: JAK1 enzyme assay (Caliper LabChip, Ki); format: biochemical; details: 25 μM ATP; Morrison tight binding model
T1 construct: The activity of the isolated recombinant JAK1 and JAK2 kinase domain was measured
Outline: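 Ki values fitted with Morrison tight-binding equation adjusted for ATP-competitive inhibition, using product-to-total peptide ratio read by Caliper LabChip. Reactions: isolated JAK1 or JAK2 kinase domain with N-terminal 5-carboxyfluorescein JAK3-derived peptide, 22° C for 30 min, quenched by EDTA.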

[2] = target: LRRK2 (Homo sapiens, UniProt Q5S007); test: LRRK2 assay (Life Technologies Adapta, SelectScreen Profiling, IC50); format: biochemical; details: for IC50: 75 μM ATP, 10-point curves, read-out: LRRK 2 IC50; for selectivity for JAK1 over LRRK2 (in words): 5-sulfanylphenyl compound compared with 5-chlorophenyl matched pair; for Ratio (LRRK 2 IC50: JAK1 Ki): selectivity ratio LRRK2 IC50 over JAK1 Ki
Chain of LRRK2 (Q5S007 970-2527 limits assumed): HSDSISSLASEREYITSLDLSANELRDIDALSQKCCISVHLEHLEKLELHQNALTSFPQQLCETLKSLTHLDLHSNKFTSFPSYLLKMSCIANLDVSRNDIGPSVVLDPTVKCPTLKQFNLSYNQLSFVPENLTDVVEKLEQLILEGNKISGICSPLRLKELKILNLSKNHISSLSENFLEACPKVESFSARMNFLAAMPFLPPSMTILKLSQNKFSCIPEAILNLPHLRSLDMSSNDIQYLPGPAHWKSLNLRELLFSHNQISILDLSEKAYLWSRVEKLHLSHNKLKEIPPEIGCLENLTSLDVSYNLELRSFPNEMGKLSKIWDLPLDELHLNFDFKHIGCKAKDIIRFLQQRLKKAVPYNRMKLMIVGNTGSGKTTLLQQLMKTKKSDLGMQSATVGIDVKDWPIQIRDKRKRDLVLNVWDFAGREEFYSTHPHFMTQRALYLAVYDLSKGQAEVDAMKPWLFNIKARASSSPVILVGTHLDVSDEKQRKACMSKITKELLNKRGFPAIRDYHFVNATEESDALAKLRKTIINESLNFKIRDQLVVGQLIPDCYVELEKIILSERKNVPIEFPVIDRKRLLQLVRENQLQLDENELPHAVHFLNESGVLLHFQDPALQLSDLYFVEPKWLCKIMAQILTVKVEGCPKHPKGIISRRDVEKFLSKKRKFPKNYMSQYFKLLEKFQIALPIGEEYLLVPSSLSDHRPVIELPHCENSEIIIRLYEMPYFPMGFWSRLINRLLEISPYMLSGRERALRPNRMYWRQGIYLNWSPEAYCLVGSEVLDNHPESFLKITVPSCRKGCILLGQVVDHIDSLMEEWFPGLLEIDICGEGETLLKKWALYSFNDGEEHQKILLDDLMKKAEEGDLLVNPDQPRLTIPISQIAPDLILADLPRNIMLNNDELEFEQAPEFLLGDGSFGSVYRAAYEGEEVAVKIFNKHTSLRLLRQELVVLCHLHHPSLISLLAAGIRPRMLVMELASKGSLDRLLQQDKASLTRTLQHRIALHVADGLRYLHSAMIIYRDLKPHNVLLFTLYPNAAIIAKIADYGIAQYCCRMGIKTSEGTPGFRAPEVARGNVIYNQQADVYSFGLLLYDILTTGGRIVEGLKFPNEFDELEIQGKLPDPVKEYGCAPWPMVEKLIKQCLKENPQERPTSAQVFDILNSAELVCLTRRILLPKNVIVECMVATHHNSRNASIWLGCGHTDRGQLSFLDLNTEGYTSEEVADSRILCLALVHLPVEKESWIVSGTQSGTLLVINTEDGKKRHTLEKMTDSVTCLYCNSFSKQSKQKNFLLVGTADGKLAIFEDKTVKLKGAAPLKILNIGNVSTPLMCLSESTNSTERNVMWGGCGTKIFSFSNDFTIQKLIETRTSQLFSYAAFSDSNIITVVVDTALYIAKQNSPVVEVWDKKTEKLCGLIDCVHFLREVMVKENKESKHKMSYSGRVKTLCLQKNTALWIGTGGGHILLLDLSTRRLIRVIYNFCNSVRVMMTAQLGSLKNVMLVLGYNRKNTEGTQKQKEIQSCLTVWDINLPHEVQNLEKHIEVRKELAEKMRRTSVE

T1 sequence (P23458 875-1153 limits assumed): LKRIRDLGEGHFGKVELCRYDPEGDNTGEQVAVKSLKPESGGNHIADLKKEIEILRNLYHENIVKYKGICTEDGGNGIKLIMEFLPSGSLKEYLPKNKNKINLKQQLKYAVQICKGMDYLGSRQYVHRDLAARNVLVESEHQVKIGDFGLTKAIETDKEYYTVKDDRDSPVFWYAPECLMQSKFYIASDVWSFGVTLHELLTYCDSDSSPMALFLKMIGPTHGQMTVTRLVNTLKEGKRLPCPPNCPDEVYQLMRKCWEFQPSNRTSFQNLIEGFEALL

Ki [1] [nM] | IC50 [2] [nM] | Ratio (LRRK 2 IC50: JAK1 Ki) [2] | SMILES | selectivity for JAK1 over LRRK2 (in words) [2]
0.31 | 2000 | 6453 | CSc1ccc(OC(F)F)c(-c2nn(CC(=O)N3CCC(CN4CCN(CC(=O)N(C)C)CC4)CC3)cc2NC(=O)c2cnn3cccnc23)c1 [L] | high degree of JAK1 over LRRK2 selectivity
0.2 | 3350 | 16750 | CSc1ccc(OC(F)F)c(-c2nn(CC(=O)N3CCC(NCC(C)(C)C#N)CC3)cc2NC(=O)c2cnn3cccnc23)c1 [M] | high degree of JAK1 over LRRK2 selectivity
0.29 | 1850 | 6379 | CSc1ccc(OC(F)F)c(-c2nn(CC(=O)N3CCC(N4CCOCC4)CC3)cc2NC(=O)c2cnn3cccnc23)c1 [N] | high degree of JAK1 over LRRK2 selectivity
